The record followed here is patent US12441709B2, “Therapeutic compounds” (INDIVIOR UK LIMITED, priority 2016, dated 2025).

SMILES strings stand for the structures. Like-named read-outs stand apart in the source and are kept apart here.

The target of assay [1] is T1, human OX1 receptor (Homo sapiens, UniProt O43613).
T1 construct: expressed in transfected cells; host or cells: CHO cells
T1 sequence (O43613 1-425): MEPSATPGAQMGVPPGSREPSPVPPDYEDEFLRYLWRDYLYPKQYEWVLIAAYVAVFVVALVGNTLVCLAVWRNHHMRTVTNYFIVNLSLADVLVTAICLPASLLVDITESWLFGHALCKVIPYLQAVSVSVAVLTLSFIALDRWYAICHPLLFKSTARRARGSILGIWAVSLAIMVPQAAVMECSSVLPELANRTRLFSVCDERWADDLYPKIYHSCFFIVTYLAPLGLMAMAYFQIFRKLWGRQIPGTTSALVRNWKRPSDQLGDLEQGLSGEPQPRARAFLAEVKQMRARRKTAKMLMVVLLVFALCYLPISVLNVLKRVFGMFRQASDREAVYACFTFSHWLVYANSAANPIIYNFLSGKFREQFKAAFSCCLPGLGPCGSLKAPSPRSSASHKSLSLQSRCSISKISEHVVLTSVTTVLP
Briefly: Ox1 antagonist FLIPR assay (calcium, orexin A at EC75). As to conditions: CHO cells expressing human OX1; at least four replicates; read-out: hOX1 pIC50 (converted). The class given is cell-based. From the text: Antagonism against orexin receptors has been measured for each example compound using at least one of the following procedures. Antagonism is reported as a pIC50, where pIC50=−log10(IC50) and where IC50 is the concentration of example compound needed to inhibit 50% of the agonist response. These values may fluctuate depending on the daily cellular assay performance. Fluctuations of this kind are known to those skilled in the art. All reported values are the result of at least four replicate experiments. Ox2 values are only reported from dose response curves for which the top concentration is at least 10 μM.
Ox1 and Ox2 Antagonist FLIPR Assay: […]
The next day media is removed and replaced with 30 μL/well of cell loading buffer (a vial of Calcium 5 is solubilized in 20 mL of assay buffer) and the cells incubated for 1 hr at 37° C. The serially diluted test compounds (10 μL/well) are added to the cell plate by the FLIPR Tetra and the addition is monitored for 5 min by the instrument. […] Finally 10 μL of orexin Ain assay buffer+0.1% (w/v) bovine serum albumin is dispensed by the FLIPR Tetra at an EC75 concentration determined for each receptor on the day of the assay. Fluorescence is measured at excitation and emission wavelengths of 485 nm and 525 nm, respectively and data analyzed using Graph Pad Prism for the EC75 value of orexin A and Aplus to determine a pIC50 value for each test compound. […]

The target in assay [2] is T2, human Orexin 1 receptor (Homo sapiens, UniProt O43613).
T2 construct: expressed in transfected cells
T2 sequence (O43613 1-425): T1 sequence (O43613 1-425)
The assay is described as follows: Kinetics of competitive binding (Motulsky and Mahan analysis), Orexin 1 receptor. As to conditions: for Ki: read-out: pKi (M&M) (converted). The method, then: (§1) Kinetics of Competitive Binding (Motulski and Mahan's Analysis):
(§2) Motulsky and Mahan characterisation of the Examples was performed as described by Faedo et al., European Journal of Pharmacology 692(2012), p. 1-9 with the following modifications:
(§3) The association binding experiment was initiated by addition of membranes expressing the human Orexin 1 receptor at different times to the incubation buffer containing 1 nM of [^3H] SB674042. Non-specific binding was determined in the presence of 10 μM of SB674042. The association of the radioligand to the orexin receptor was performed as described for the kinetics experiment in the presence of the competing test compounds. The competing test compounds were assayed at three concentrations corresponding to 3, 10 and 30 fold of the determined Ki. For kinetic binding studies of the human Orexin 2 receptor, the method described for the Orexin 1 receptor was used with modifications that membranes expressing the human Orexin 2 receptor were incubated in buffer containing 1 nM of [3H] EMPA and non-specific binding was determined in the presence of 10 μM ACT-078573.

The target in assay [3] is T3, human Orexin 2 receptor (Homo sapiens, UniProt O43614).
T3 construct: expressed in transfected cells
T3 sequence (O43614 1-444): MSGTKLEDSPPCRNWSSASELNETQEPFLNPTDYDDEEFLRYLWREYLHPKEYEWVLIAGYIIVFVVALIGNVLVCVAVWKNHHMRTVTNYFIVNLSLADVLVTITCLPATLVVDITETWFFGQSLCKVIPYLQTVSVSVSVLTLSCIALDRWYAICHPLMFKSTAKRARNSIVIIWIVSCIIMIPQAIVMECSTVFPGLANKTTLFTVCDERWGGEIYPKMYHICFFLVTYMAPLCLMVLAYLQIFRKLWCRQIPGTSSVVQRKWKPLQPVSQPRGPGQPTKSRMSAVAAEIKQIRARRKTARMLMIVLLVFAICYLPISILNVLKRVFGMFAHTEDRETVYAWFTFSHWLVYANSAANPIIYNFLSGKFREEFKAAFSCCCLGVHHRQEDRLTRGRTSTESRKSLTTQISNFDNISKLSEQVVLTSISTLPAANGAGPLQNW
Briefly: Kinetics of competitive binding (Motulsky and Mahan analysis), Orexin 2 receptor. The settings on record: mean of 3 studies (n=3); for Ki: 1 nM [3H] EMPA, read-out: pKi (M&M) (converted). The method, then:
as §1, §2, §3
The results for the Orexin-2 Receptor studies are the mean of the results from 3 studies (n=3) for both Example compounds.

The mark [4] stands for this setting: further test results (Example 1 n = 3, Example 2 n = 1).
Where [5] appears, read: mean of all results (Example 1 n = 5, Example 2 n = 3).
[6] abbreviates: mean of initial results (n = 2).

As a reminder, the koff is a measure of how fast the partners let go of each other. Read a high koff as a short-lived complex. By kon is commonly meant the second-order rate constant of association. Turning to `Cc1ccc(-n2nccn2)c(C(=O)N(C)[C@@H](C)CNc2ncc(C(F)(F)F)cn2)n1` [Example 2, N,6-dimethyl-3-(2H-1,2,3-triazol-2-yl)-N-[(2S)-1-{[5-(trifluoromethyl)pyrimidin-2-yl]amino}propan-2-yl]pyridine-2-carboxamide], the IC50 in assay [1] was 1.26 nM. Also, in assay [2] (setting [4]), the dissociation half-life came out at 1 h, the off-rate constant (koff) is 0.000183 s⁻¹, the kon was 78000 M⁻¹ s⁻¹ and the tR was found to be 87 min. The Ki in assay [2] (setting [4]) was 2.51 nM. For the same compound, in assay [2] (setting [5]), the dissociation half-life was determined as 1.08 h, the koff is 0.000183 s⁻¹, the kon is 76200 M⁻¹ s⁻¹ and the tR turned out to be 93 min. Also, the Ki in assay [2] (setting [5]) was 2.51 nM. In assay [2] (setting [6]), this compound gave a dissociation half-life of 1.12 h, a koff of 0.000167 s⁻¹, a kon of 75300 M⁻¹ s⁻¹ and a tR of 96 min. Further, the Ki in assay [2] (setting [6]) is 2.51 nM. Moreover, in assay [3], the Ki was 1580 nM, the dissociation half-life came out at 4.3 min, the koff was 0.00298 s⁻¹ and the kon is 1830 M⁻¹ s⁻¹. In assay [3], this compound displayed a tR of 6.2 min.

As for `Cc1ccc(-n2nccn2)c(C(=O)N(C)[C@@H](C)CNc2cnc(C(F)(F)F)cn2)n1` [Example 1, N,6-dimethyl-3-(2H-1,2,3-triazol-2-yl)-N-[(2S)-1-{[5-(trifluoromethyl)pyrazin-2-yl]amino}propan-2-yl]pyridine-2-carboxamide], the IC50 in assay [1] is 0.794 nM. Moreover, in assay [2] (setting [4]), the dissociation half-life is 1.73 h, the dissociation rate constant (koff) is 0.000117 s⁻¹, the kon was 146000 M⁻¹ s⁻¹ and the tR is listed as 150 min. In assay [2] (setting [4]), the Ki was 0.794 nM. In addition, in assay [2] (setting [5]), the dissociation half-life was 2.83 h, the off-rate (koff) is 8.33e-05 s⁻¹, the kon is 140000 M⁻¹ s⁻¹ and the tR was 245 min. The Ki in assay [2] (setting [5]) was 0.501 nM. For the same compound, in assay [2] (setting [6]), the dissociation half-life turned out to be 4.13 h, the off-rate (koff) was 5e-05 s⁻¹, the kon is 130000 M⁻¹ s⁻¹ and the tR was determined as 357 min. Moreover, in assay [2] (setting [6]), the Ki was 0.316 nM. For the same compound, in assay [3], the Ki was 316 nM, the dissociation half-life turned out to be 4.1 min, the koff was 0.00352 s⁻¹ and the kon is 10800 M⁻¹ s⁻¹. In assay [3], the tR worked out at 5.9 min.
